pIC50: −log10 of the molar value. Read-outs that look alike come from different tables or passages of the source.
Experiments:
[1] = tested on: Ba/F3 ERBB2 A775_G776insYVMA; experiment: Efficacy in nude mouse tumor-bearing model of Ba/F3 ERBB2 A775_G776insYVMA; format: in vivo, BALB/c nude mice; conditions: 30 mg/kg
[2] = biological target: Ba/F3 EGFR D770_N771insSVD cells (Homo sapiens, UniProt P00533, DUP768-770, cells depend on it); experiment: Inhibition of cell proliferation, CTG method, Ba/F3 EGFR D770_N771insSVD; format: cell-based; conditions: 72 hours, read-out: Ba/F3 EGFR D770_N771insSVD IC50
Excerpt: (§1) The present application examined the in vitro anti-proliferative activity of the compounds of the present disclosure against in vitro cultured BT474, NCI-N87, Ba/F3-EGFR-VIII and Ba/F3 HER2 A775_G776insYVMA and Ba/F3 EGFR D770_N771insSVD cell lines by CTG method.
(§2) Reagents and consumables: RPMI1640 (ThermoFisher, Cat. No. C11875500BT); fetal bovine serum (Hyclone, Cat. No. SV30087.03); 0.25% trypsin-EDTA (ThermoFisher, Cat. No. 25200-072); penicillin-streptomycin (Hyclone, Cat. No. SV30010); DMSO (Amresco, Cat. No. 0231-500ML); CTG assay kit (Promega, Cat. No. G924C); 96-well plate (Corning, Cat. No. 3603); multifunctional plate reader (Perkin Elmer, Cat. No. Envision)
(§3) Cell lines: BT474 (from the cell bank of Chinese Academy of Sciences), NCI-N87 (from ATCC), Ba/F3-EGFR-VIII, Ba/F3 HER2 A775_G776insYVMA and Ba/F3 EGFR D770_N771insSVD (all from KYinno Biotechnology (Beijing) Co., Ltd.); all of the above cells were cultured with RPMI1640 medium containing 10% fetal bovine serum, 100 U/mL penicillin, and 100 μg/mL streptomycin in the culture process.
(§4) 1. The assay compound was dissolved with DMSO to form a stock solution and a gradient dilution was performed, followed by dilution with the corresponding medium to obtain a solution with 5-fold working concentration.
(§5) 2. Cells in logarithmic growth phase were adjusted to specific cell densities by dilution with culture medium, and 80 μL of cell suspension was added to a 96-well plate, such that plating densities of cells of BT474, NCI-N87, Ba/F3-EGFR-VIII, Ba/F3 HER2 A775_G776insYVMA and Ba/F3 EGFR D770_N771insSVD were all 3000 cells/well. The cells of Ba/F3-EGFR-VIII, Ba/F3 HER2 A775_G776insYVMA and Ba/F3 EGFR D770_N771insSVD were used directly in the next step (treatment with compound), whereas the BT474 and NCI-N87 needed to be cultured overnight in a 37° C., 5% carbon dioxide gas incubator to adhere to the wall, and then treated with compounds.
(§6) 3. 20 μL of compound solution was added to each well of the 96-well plate that had been inoculated with cells. The highest concentration of the assayed compound was 10 μM, 4-fold serial dilution, a total of 9 concentrations, and duplicate wells. A control group without compound was also set up.
(§7) 4. The cells were cultured for another 72 hours, and then cell viability was detected by CTG assay kit. Signal values were read with a multifunctional plate reader (Perkin Elmer). GraphPad Prism software was used to create a dose-response curve and IC50 was calculated.

BT474 cells = experiment: Inhibition of cell proliferation, CTG method, BT474; format: cell-based; conditions: Homo sapiens, BT-474, 72 hours, read-out: hBT474 IC50
Excerpt: as §1, §2, §3
1. […]
as §7

NCI-N87 cells = experiment: Inhibition of cell proliferation, CTG method, NCI-N87; format: cell-based; conditions: Homo sapiens, 72 hours, read-out: hNCI-N87 IC50
Excerpt: as §1, §2, §3, §4, §5, §6, §7

[3] = Brain tissue and whole blood concentration in SD rats after oral administration; format: in vivo; conditions: rat, PO 10 mg/kg, 2 h after administration
Method: In this assay, the pharmacokinetic characteristics of the compounds of the present application were assayed after administration of some of the compounds of the present application to SD rats by single oral administration and intravenous injection.
2. […] The mixture was stirred, vortexed and/or sonicated. Once a solution was obtained, the vehicle was gradually added to a final volume to reach the target concentration. The solution was vortexed, and sonicated to obtain a homogeneous solution.
Meanwhile, the IV group was not fasted and the PO group was fasted overnight (>12 hrs) and given food 2 hrs after drug administration. All animals had free access to water. The dosing regimen and pharmacokinetic sampling regimen are given in Table 6 and Table 7 below, respectively.
Rats were administered according to the above regimen, and blood and brain tissue samples were collected and processed at predetermined time points (collection and processing were performed according to conventional methods in the art).
The supernatant was diluted 2-fold with ultra-pure water, and the samples were analyzed by LC/MS.
Brain tissues were weighed and homogenized by adding 4-fold homogenizing solution (acetonitrile/water=1/1 v/v). […] The supernatant was diluted 2-fold with ultra-pure water, and the samples were analyzed by LC/MS.

Sequence of Ba/F3 EGFR D770_N771insSVD cells (P00533 with tags, fused parts or gaps DUP768-770): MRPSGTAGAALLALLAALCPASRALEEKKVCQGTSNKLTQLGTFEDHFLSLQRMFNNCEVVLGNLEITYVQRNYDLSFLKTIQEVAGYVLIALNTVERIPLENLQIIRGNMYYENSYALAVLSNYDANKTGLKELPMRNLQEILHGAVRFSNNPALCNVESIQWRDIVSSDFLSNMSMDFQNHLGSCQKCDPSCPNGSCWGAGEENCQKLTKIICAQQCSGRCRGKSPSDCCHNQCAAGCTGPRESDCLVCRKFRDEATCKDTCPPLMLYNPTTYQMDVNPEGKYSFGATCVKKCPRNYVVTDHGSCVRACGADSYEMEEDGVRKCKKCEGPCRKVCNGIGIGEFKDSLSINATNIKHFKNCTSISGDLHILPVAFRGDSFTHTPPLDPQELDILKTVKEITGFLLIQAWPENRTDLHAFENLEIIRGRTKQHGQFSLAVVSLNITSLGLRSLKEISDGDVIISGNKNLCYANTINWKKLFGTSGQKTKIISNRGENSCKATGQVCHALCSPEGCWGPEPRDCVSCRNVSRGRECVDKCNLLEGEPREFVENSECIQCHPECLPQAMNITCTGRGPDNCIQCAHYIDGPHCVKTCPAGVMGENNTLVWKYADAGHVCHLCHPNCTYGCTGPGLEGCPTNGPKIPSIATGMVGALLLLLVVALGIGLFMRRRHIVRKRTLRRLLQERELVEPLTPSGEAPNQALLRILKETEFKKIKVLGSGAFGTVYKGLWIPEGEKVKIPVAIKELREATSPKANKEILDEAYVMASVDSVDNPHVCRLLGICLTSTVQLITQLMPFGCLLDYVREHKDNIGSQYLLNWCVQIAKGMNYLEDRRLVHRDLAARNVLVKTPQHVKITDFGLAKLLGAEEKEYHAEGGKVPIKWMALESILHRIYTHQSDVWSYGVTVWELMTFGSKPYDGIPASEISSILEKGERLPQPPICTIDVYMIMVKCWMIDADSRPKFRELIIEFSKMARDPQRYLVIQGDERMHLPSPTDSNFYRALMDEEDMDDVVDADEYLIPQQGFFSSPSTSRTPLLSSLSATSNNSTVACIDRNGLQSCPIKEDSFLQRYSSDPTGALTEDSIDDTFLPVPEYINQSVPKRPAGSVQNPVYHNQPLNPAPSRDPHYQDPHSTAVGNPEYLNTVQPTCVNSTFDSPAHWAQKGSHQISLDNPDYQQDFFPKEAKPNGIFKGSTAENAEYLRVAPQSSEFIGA

Row | Compound | T/C (%) ([1]; QD×15, PO, day 15) | GI50 [2] [nM] | T/C (%) ([1]; QD×14, PO, day 14) | pIC50 (BT474 cells) | pIC50 (NCI-N87 cells) | T/C (%) ([1]; QD×11, PO, day 11) | concentration at 2 h ([3]; whole blood, read-out: Blood drug concentration) [ng/mL] | Kp at 2 h ([3]; brain / whole blood, read-out: Brain tissue/blood ratio) | concentration at 2 h ([3]; brain, NA: Exposure was too low to be counted, read-out: Brain tissue concentration) [ng/g]
1 | COCCCOc1c(NC(=O)/C=C/[C@H]2CCCN2C)ccc2ncnc(Nc3ccc(OCc4ccccn4)c(Cl)c3)c12 [Example 9, (R,E)-N-(4-((3-chloro-4-(pyridin-2-ylmethoxy)phenyl)amino)-5-(3-methoxypropoxy)quinazolin-6-yl)-3-(1-methylpyrrolidin-2-yl)acrylamide] | 3.85 | 10 to 100 | – | – | – | – | – | – | –
2 | COc1c(NC(=O)/C=C/[C@H]2CCCN2C)ccc2ncnc(Nc3ccc(OCc4ccccn4)c(Cl)c3)c12 [Example 4, (R,E)-N-(4-((3-chloro-4-(pyridin-2-ylmethoxy)phenyl)amino)-5-methoxyquinazolin-6-yl)-3-(1-methylpyrrolidin-2-yl)acrylamide] | – | 10 to 100 | 2.6 | 8.00 to 8.30 | > 9.00 | – | – | – | –
3 | CCN1CCC[C@@H]1/C=C/C(=O)Nc1ccc2ncnc(Nc3ccc(OCc4ccccn4)c(Cl)c3)c2c1OC [Example 29, (R,E)-N-(4-((3-chloro-4-(pyridin-2-ylmethoxy)phenyl)amino)-5-methoxyquinazolin-6-yl)-3-(1-ethylpyrrolidin-2-yl)acrylamide] | – | 10 to 100 | – | – | – | 18.7 | 121 | 0.36 | 43.5

— patent US20240246934A1, “QUINAZOLINE-BASED COMPOUND, COMPOSITION, AND APPLICATION OF QUINAZOLINE-BASED COMPOUND” (BEIJING SCITECH-MQ PHARMACEUTICALS LIMITED, priority 2021, published 2024)
